In patent US8192962B2, “Processes for detecting toxic substances” (Daikin Industries, Ltd., priority 2001, dated 2012):

System: Genes belonging to other category
Assay: DNA chip mRNA expression in yeast, genes belonging to other category (Table 9)
Format: cell-based, Saccharomyces cerevisiae S288C
Description: Yeast (Saccharomyces cerevisiae S288C (α SUC2mal mel gap2 CUP1)) were incubated at 25° C. on YPD medium (yeast extract 1%, polypepton 2%, glucose 2%). One of toxic chemical substances was added to the cells at logarithmic growth phase, and the cells were further incubated for two hours. Cells were cultured without any chemical substance in the same condition, and were used as control. Concentrations of the chemical substances were defined to inhibit the growth of the yeast but not lead to death.
After completion of the incubation, the culture was centrifuged to collect the cells. To the cells, sodium acetate buffer (50 mM sodium acetate, 10 mM EDTA, 1% SDS) was added, and the mixture was shaken at 65° C. for five minutes, followed by returning to room temperature, and obtaining the supernatant, of which the procedures were repeated two times. To the supernatant, ½ amount of a solution of phenol/chloroform was added, and the mixture was centrifuged to give a supernatant, which was added with an equal amount of chloroform, and the mixture was centrifuged to give a supernatant. To the supernatant, an equal amount of isopropanol containing 0.3 M sodium acetate was added, and the mixture was allowed to stand at room temperature for 30 minutes, after which the mixture was centrifuged to give a sediment of the whole RNAs. Seventy % ethanol was added to the sediment, and the mixture was again centrifuged to give a sediment, which was then dried and dissolved in water. mRNA was isolated from the whole RNAs as followings. In view of the fact that a poly A chain is attached to the 3′ terminus of mRNA, a polynucleotide having a poly T structure which was immobilized on the surface of latex beads was used to trap the mRNA, and then the mRNA was washed and eluted with spine column (Oligotex-dT30<Super>mRNA Purification Kit, Takara). Reverse transcription of the mRNA was conducted with a reverse transcriptase (Super Script II Reverse Transcriptase; catalogue No. 18064-014, GibcoBRL) using fluorescence-labeled nucleotides to give cDNAs that were introduced with Cy3-dUTP or Cy5-dUTP during the reverse transcription.
The labeled cDNAs were dissolved in TE buffer (10mM Tris-HCl/1 mM EDTA, pH8.0), and the solution was dropped on the DNA chip containing the whole genes of yeast (DNA Chip Research Inc. Japan) so that the cDNAs were hybridized on the DNA chip at 65° C. for over 12 hours. The fluoresces intensity of the DNA chip was read with a scanner, and the ratio relative to the fluorescence intensity resulting from the absence of chemical substance was estimated as the following, which is shown in Tables 1 to 9: […]

Compound: Oc1cc(Cl)c(Cl)cc1Cl [(6), 2,4,5-trichlorophenol]
- The level of expressed mRNA in the presence of chemical substance/The level of expressed mRNA in the absence of chemical substance (yeast gene YAR010C): 2.3
- The level of expressed mRNA in the presence of chemical substance/The level of expressed mRNA in the absence of chemical substance (yeast gene YBL005W-A): 1.2
- The level of expressed mRNA in the presence of chemical substance/The level of expressed mRNA in the absence of chemical substance (yeast gene YBL041W): 1.7
- The level of expressed mRNA in the presence of chemical substance/The level of expressed mRNA in the absence of chemical substance (yeast gene YBL043W): 26.9
- The level of expressed mRNA in the presence of chemical substance/The level of expressed mRNA in the absence of chemical substance (yeast gene YBL078C): 2.4
- The level of expressed mRNA in the presence of chemical substance/The level of expressed mRNA in the absence of chemical substance (yeast gene YBL101W-A): 1.4
- The level of expressed mRNA in the presence of chemical substance/The level of expressed mRNA in the absence of chemical substance (yeast gene YBR170C): 1.4
- The level of expressed mRNA in the presence of chemical substance/The level of expressed mRNA in the absence of chemical substance (yeast gene YBR173C): 1.3
- The level of expressed mRNA in the presence of chemical substance/The level of expressed mRNA in the absence of chemical substance (yeast gene YBR212W): 1.4
- The level of expressed mRNA in the presence of chemical substance/The level of expressed mRNA in the absence of chemical substance (yeast gene YBR214W): 0.8
- The level of expressed mRNA in the presence of chemical substance/The level of expressed mRNA in the absence of chemical substance (yeast gene YCL020W): 1.0
- The level of expressed mRNA in the presence of chemical substance/The level of expressed mRNA in the absence of chemical substance (yeast gene YCL027W): 1.3
- The level of expressed mRNA in the presence of chemical substance/The level of expressed mRNA in the absence of chemical substance (yeast gene YCR004C): 1.8
- The level of expressed mRNA in the presence of chemical substance/The level of expressed mRNA in the absence of chemical substance (yeast gene YCR069W): 1.4
- The level of expressed mRNA in the presence of chemical substance/The level of expressed mRNA in the absence of chemical substance (yeast gene YCR071C): 2.5
- The level of expressed mRNA in the presence of chemical substance/The level of expressed mRNA in the absence of chemical substance (yeast gene YCR088W): 2.0
- The level of expressed mRNA in the presence of chemical substance/The level of expressed mRNA in the absence of chemical substance (yeast gene YCR106W): 1.4
- The level of expressed mRNA in the presence of chemical substance/The level of expressed mRNA in the absence of chemical substance (yeast gene YDL008W): 2.7
- The level of expressed mRNA in the presence of chemical substance/The level of expressed mRNA in the absence of chemical substance (yeast gene YDL018C): 1.4
- The level of expressed mRNA in the presence of chemical substance/The level of expressed mRNA in the absence of chemical substance (yeast gene YDL143W): 1.0
- The level of expressed mRNA in the presence of chemical substance/The level of expressed mRNA in the absence of chemical substance (yeast gene YDL220C): 1.8
- The level of expressed mRNA in the presence of chemical substance/The level of expressed mRNA in the absence of chemical substance (yeast gene YDL230W): 0.9
- The level of expressed mRNA in the presence of chemical substance/The level of expressed mRNA in the absence of chemical substance (yeast gene YDL238C): 2.1
- The level of expressed mRNA in the presence of chemical substance/The level of expressed mRNA in the absence of chemical substance (yeast gene YDR055W): 3.9
- The level of expressed mRNA in the presence of chemical substance/The level of expressed mRNA in the absence of chemical substance (yeast gene YDR084C): 2.1
- The level of expressed mRNA in the presence of chemical substance/The level of expressed mRNA in the absence of chemical substance (yeast gene YDR085C): 2.1
- The level of expressed mRNA in the presence of chemical substance/The level of expressed mRNA in the absence of chemical substance (yeast gene YDR104C): 1.7
- The level of expressed mRNA in the presence of chemical substance/The level of expressed mRNA in the absence of chemical substance (yeast gene YDR115W): 2.3
- The level of expressed mRNA in the presence of chemical substance/The level of expressed mRNA in the absence of chemical substance (yeast gene YDR212W): 1.4
- The level of expressed mRNA in the presence of chemical substance/The level of expressed mRNA in the absence of chemical substance (yeast gene YDR259C): 0.5
- The level of expressed mRNA in the presence of chemical substance/The level of expressed mRNA in the absence of chemical substance (yeast gene YDR264C): 1.8
- The level of expressed mRNA in the presence of chemical substance/The level of expressed mRNA in the absence of chemical substance (yeast gene YDR315C): 9.4
- The level of expressed mRNA in the presence of chemical substance/The level of expressed mRNA in the absence of chemical substance (yeast gene YDR358W): 2.5
- The level of expressed mRNA in the presence of chemical substance/The level of expressed mRNA in the absence of chemical substance (yeast gene YDR388W): 1.0
- The level of expressed mRNA in the presence of chemical substance/The level of expressed mRNA in the absence of chemical substance (yeast gene YDR403W): 1.1
- The level of expressed mRNA in the presence of chemical substance/The level of expressed mRNA in the absence of chemical substance (yeast gene YDR432W): 0.6
- The level of expressed mRNA in the presence of chemical substance/The level of expressed mRNA in the absence of chemical substance (yeast gene YDR481C): 0.9
- The level of expressed mRNA in the presence of chemical substance/The level of expressed mRNA in the absence of chemical substance (yeast gene YDR510W): 1.0
- The level of expressed mRNA in the presence of chemical substance/The level of expressed mRNA in the absence of chemical substance (yeast gene YEL042W): 0.5
- The level of expressed mRNA in the presence of chemical substance/The level of expressed mRNA in the absence of chemical substance (yeast gene YEL066W): 2.2
- The level of expressed mRNA in the presence of chemical substance/The level of expressed mRNA in the absence of chemical substance (yeast gene YER021W): 1.1
